According to BigSolDB 2.1:

Details: in water

Structure (SMILES) | solubility (mole fraction) (333.15 K) | solubility (mole fraction) (343.15 K) | solubility (mole fraction) (353.15 K) | solubility (mole fraction) (363.15 K) | solubility (mole fraction) (373.15 K) | solubility (mole fraction) (323.15 K)
OCCc1ccccc1 | 0.0051 | 0.0055 | 0.0056 | 0.0065 | 0.0065 | –
O=Cc1ccco1 | – | – | 0.028 | 0.0314 | 0.034 | –
CCCCCC1CCC(=O)O1 (configuration not stated) | 0.00087 | 0.00099 | 0.00109 | 0.00118 | 0.00128 | 0.00072
O=Cc1ccccc1 | – | – | 0.00236 | 0.00261 | 0.0036 | –
